Test results published in ChEMBL document CHEMBL4483862, “Open-source discovery of chemical leads for next-generation chemoprotective antimalarials” (2018).

System: Plasmodium berghei
Test: Luciferase/luciferin-expressing antifolate-resistant parasites were used to infect a culture of HepG2 cells that were pre-incubated with compounds. Infected hepatocytes emit light due to the luciferase reaction. Assay results are presented as the percent inhibition of light emission compared to control. […]
Type: functional
Details: sporozoite; for IC90: read-out: LUCIFERASE INFECTION ASSAY - IC90
[1] = read-out: LUCIFERASE INFECTION ASSAY - IC50

Row | SMILES | IC50 [1] [µM] | IC90 [µM] | other results
1 | COc1cc(Nc2nccc3nc(-c4ccc5c(c4)OCCO5)[nH]c23)cc(OC)c1OC | 0.494 | 1.67 | 
2 | COc1cccc(CN2CCN3C=C(C(=O)Nc4ccc(OCc5ccccc5)cc4)OC3=NC2=O)c1 |  | > 10 | IC50 (HEPG2TOX_HILL_SLOPE 3.22, HEPG2TOX_R_SQUARED 0.229, read-out: LUCIFERASE INFECTION ASSAY - IC50): > 10 µM
3 | COc1ccc(Nc2nc(NCC3CC3)nc3cc(-c4ccccc4)sc23)cc1OC |  | > 7.63 | IC50 (HEPG2TOX_HILL_SLOPE 1.76, HEPG2TOX_R_SQUARED 0.98, PBLUC_HILL_SLOPE 10.6, PBLUC_R_SQUARED 0.159, read-out: LUCIFERASE INFECTION ASSAY - IC50): 6.32 µM
4 | N#Cc1ccc(S(=O)(=O)Nc2cc(C(F)(F)F)cc(C(F)(F)F)c2)c(Cl)c1 |  | 5.49 | IC50 (FFLUC_HILL_SLOPE 10.5, FFLUC_R_SQUARED 0.0508, HEPG2TOX_HILL_SLOPE 1.91, HEPG2TOX_R_SQUARED 0.922, PBLUC_HILL_SLOPE 2.28, PBLUC_R_SQUARED 0.661, read-out: LUCIFERASE INFECTION ASSAY - IC50): 2.09 µM
5 | CC(C)n1ncc2c(C(=O)Nc3sccc3C#N)cc(C3CC3)nc21 |  | > 10 | IC50 (FFLUC_HILL_SLOPE 1.6, FFLUC_R_SQUARED 0.58, HEPG2TOX_HILL_SLOPE 1.47, HEPG2TOX_R_SQUARED 0.871, PBLUC_HILL_SLOPE 3.01, PBLUC_R_SQUARED 0.133, read-out: LUCIFERASE INFECTION ASSAY - IC50): 5.55 µM
6 | C/C(=N\N=C(N)N)c1ccc(Cl)c(Cl)c1 |  | > 10 | IC50 (PBLUC_HILL_SLOPE 2.49, PBLUC_R_SQUARED 0.254, read-out: LUCIFERASE INFECTION ASSAY - IC50): 4.31 µM
7 | COc1ccc(-c2cnc3cnc(-c4ccccc4)cn23)cc1 |  | 3.33 | IC50 (HEPG2TOX_HILL_SLOPE 1.56, HEPG2TOX_R_SQUARED 0.972, PBLUC_HILL_SLOPE 1.73, PBLUC_R_SQUARED 0.792, read-out: LUCIFERASE INFECTION ASSAY - IC50): 0.932 µM
8 | Cc1cc(OCC(=O)NC(C)c2ccc(-n3cncn3)cc2)no1 (configuration not stated) | > 10 | > 10 | 
9 | CC(C)Nc1nc(-c2ccccc2CO)c2sc(-c3ccccc3)cc2n1 |  | 0.949 | IC50 (HEPG2TOX_HILL_SLOPE 1.93, HEPG2TOX_R_SQUARED 0.921, PBLUC_HILL_SLOPE 16.9, PBLUC_R_SQUARED 0.634, read-out: LUCIFERASE INFECTION ASSAY - IC50): 0.833 µM
10 | OCc1ccc(-c2cnc3ccc(-c4cncnc4)nn23)cc1 |  | 3.81 | IC50 (HEPG2TOX_HILL_SLOPE 10.3, HEPG2TOX_R_SQUARED 0.526, PBLUC_HILL_SLOPE 13.6, PBLUC_R_SQUARED 0.613, read-out: LUCIFERASE INFECTION ASSAY - IC50): 3.24 µM
11 | COc1ccc(Nc2nccc3c2cc(-c2ccccc2OC)n3C)c(OC)c1 |  | 8.07 | IC50 (PBLUC_HILL_SLOPE 3.43, PBLUC_R_SQUARED 0.599, read-out: LUCIFERASE INFECTION ASSAY - IC50): 4.25 µM
12 | Cc1ccc(-c2nnc(SCC(=O)N3c4ccccc4OCC3c3ccccc3)[nH]2)cc1 (configuration not stated) | > 10 | > 10 | 
13 | O=C1N(Cc2ccccc2)C(=O)C2(CCN(CC3CC=CCC3)CC2)N1CCc1ccccc1 (configuration not stated) |  | > 7.21 | IC50 (HEPG2TOX_HILL_SLOPE 1.57, HEPG2TOX_R_SQUARED 0.788, PBLUC_HILL_SLOPE 4.98, PBLUC_R_SQUARED 0.479, read-out: LUCIFERASE INFECTION ASSAY - IC50): 4.9 µM
14 | CC(C)c1ccc2c(c1)/C(=N/NC(=O)c1ccccc1F)C(=O)N2 |  | 0.084 | IC50 (PBLUC_HILL_SLOPE 280, PBLUC_R_SQUARED 0.522, read-out: LUCIFERASE INFECTION ASSAY - IC50): 0.0833 µM
15 | NC(c1csc(NC(=O)Nc2cccc(C(F)(F)F)c2)n1)C1CCCCC1 (configuration not stated) |  | 6.65 | IC50 (PBLUC_HILL_SLOPE 23.3, PBLUC_R_SQUARED 0.126, read-out: LUCIFERASE INFECTION ASSAY - IC50): 6.05 µM
16 | C/C=C/c1ccc(OCC(O)Cn2c(=O)c(-c3ccccc3)[n+]([O-])c3ccccc32)c(OC)c1 (configuration not stated) | 1.21 | 9.19 | 
17 | C/C(=N\NC(=N)N)c1ccc(C2CCCCC2)cc1 |  | > 10 | IC50 (HEPG2TOX_HILL_SLOPE 4.72, HEPG2TOX_R_SQUARED 0.94, read-out: LUCIFERASE INFECTION ASSAY - IC50): > 10 µM
18 | Cc1ccc(C(=O)NC(C)C)n1C |  | 0.447 | IC50 (PBLUC_HILL_SLOPE 12.7, PBLUC_R_SQUARED 0.475, read-out: LUCIFERASE INFECTION ASSAY - IC50): 0.376 µM
19 | CCN1CCN(c2nc(-c3ccccc3)nc3sc(-c4ccccc4)cc23)CC1 |  | > 10 | IC50 (HEPG2TOX_HILL_SLOPE 6.07, HEPG2TOX_R_SQUARED 0.861, PBLUC_HILL_SLOPE 3.24, PBLUC_R_SQUARED 0.199, read-out: LUCIFERASE INFECTION ASSAY - IC50): 6.9 µM
20 | CCOC(=O)c1[nH]c(C)c(C(=O)/C=C/c2c(C)nn3c(C(F)(F)F)ccnc23)c1C |  | 0.365 | IC50 (HEPG2TOX_HILL_SLOPE 1.29, HEPG2TOX_R_SQUARED 0.824, PBLUC_HILL_SLOPE 0.936, PBLUC_R_SQUARED 0.825, read-out: LUCIFERASE INFECTION ASSAY - IC50): 0.0349 µM
21 | COc1ccc(CCn2c(C)nc3c(cnn3-c3ccccc3)c2=O)cc1 | 0.489 | 3.03 | 

Row | SMILES | IC50 [1] [µM] | IC90 [µM] | other results
22 | Cc1cc(C(=O)COC(=O)C2=COCCO2)c(C)n1Cc1ccco1 | > 10 | > 10 | 
23 | CNC(=O)NC(=O)CNc1ccc(C(F)(F)F)cc1 | > 10 | > 10 | 
24 | O=C(Nc1cccc(Cl)c1)Nc1ccc2nc(-c3ccc(F)c(Cl)c3)nn2c1 |  | 7.37 | IC50 (HEPG2TOX_HILL_SLOPE 11.5, HEPG2TOX_R_SQUARED 0.414, PBLUC_HILL_SLOPE 109, PBLUC_R_SQUARED 0.131, read-out: LUCIFERASE INFECTION ASSAY - IC50): 7.23 µM
25 | CCN(CC)S(=O)(=O)c1cc(NC(=O)C2CCN(c3ncnc4sc(C)c(C)c34)CC2)ccc1Cl |  | 3.98 | IC50 (HEPG2TOX_HILL_SLOPE 2.3, HEPG2TOX_R_SQUARED 0.823, PBLUC_HILL_SLOPE 13, PBLUC_R_SQUARED 0.57, read-out: LUCIFERASE INFECTION ASSAY - IC50): 3.36 µM
26 | CCN(CC)c1ncnc2c1oc1nc(CC(C)C)c3c(c12)CCC3 | > 9.75 | > 9.75 | 
27 | CC(C)NC(=O)c1c(NC(=O)c2cc(F)c(Cl)cc2F)nc2ccccn12 |  | 1.42 | IC50 (HEPG2TOX_HILL_SLOPE 0.89, HEPG2TOX_R_SQUARED 0.947, PBLUC_HILL_SLOPE 3.47, PBLUC_R_SQUARED 0.71, read-out: LUCIFERASE INFECTION ASSAY - IC50): 0.755 µM
28 | Fc1ccc(C(CCNCc2ccccn2)c2ccc(Cl)cc2)cc1 (configuration not stated) |  | > 9.3 | IC50 (PBLUC_HILL_SLOPE 1.42, PBLUC_R_SQUARED 0.0971, read-out: LUCIFERASE INFECTION ASSAY - IC50): 5.49 µM
29 | CC(=O)c1sc2sc(C#N)c(C)c2c1C | > 14 | > 14 | 
30 | COCCN1C=C(C(=O)OC)C(c2cccc(O)c2)C(C(=O)OC)=C1 | > 9.5 | > 9.5 | 
31 | COc1ccccc1CNC(=O)c1cc(Cl)ccc1OC | > 10.8 | > 10.8 | 
32 | O=C(NNC(=O)c1sc(-c2ccco2)nc1-c1ccccc1)c1ccccn1 |  | 3.33 | IC50 (HEPG2TOX_HILL_SLOPE 1.58, HEPG2TOX_R_SQUARED 0.893, PBLUC_HILL_SLOPE 37.6, PBLUC_R_SQUARED 0.722, read-out: LUCIFERASE INFECTION ASSAY - IC50): 3.14 µM
33 | COc1ccc(CC2(Cc3ccc(OC)c(F)c3)C(=O)N(c3ccccc3C)C(=O)c3ccccc32)cc1F |  | > 10 | IC50 (FFLUC_HILL_SLOPE 0.212, FFLUC_R_SQUARED 0.0258, read-out: LUCIFERASE INFECTION ASSAY - IC50): > 10 µM
34 | O=C(c1ccccc1)C1(c2nc3ccccc3s2)Sc2ccccc2C1=O (configuration not stated) |  | 7.72 | IC50 (HEPG2TOX_HILL_SLOPE 2.24, HEPG2TOX_R_SQUARED 0.913, PBLUC_HILL_SLOPE 6.06, PBLUC_R_SQUARED 0.741, read-out: LUCIFERASE INFECTION ASSAY - IC50): 5.37 µM
35 | NS(=O)(=O)c1ccc(Nc2nc(-c3cc(F)ccc3F)cs2)cc1 |  | > 10 | IC50 (FFLUC_HILL_SLOPE 0.845, FFLUC_R_SQUARED 0.288, PBLUC_HILL_SLOPE 13.0, 1.97, PBLUC_R_SQUARED 0.591, 0.616, read-out: LUCIFERASE INFECTION ASSAY - IC50): 8.85 µM
36 | O=C(Nc1nc(-c2ccc(F)cc2)cs1)c1cccc(S(=O)(=O)N2CCc3ccccc32)c1 | > 10 | > 10 | 
37 | N#C/C(=C\Nc1cccc([N+](=O)[O-])c1)S(=O)(=O)c1ccc(Cl)cc1 | > 9.07 | > 9.07 | 
38 | Cc1nnc(SCCOc2ccc(C(C)(C)C)cc2)n1C1CCCCC1 |  | > 10 | IC50 (HEPG2TOX_HILL_SLOPE 0.16, HEPG2TOX_R_SQUARED 0.182, read-out: LUCIFERASE INFECTION ASSAY - IC50): > 10 µM
39 | CCOc1ccccc1/C=C/C(=O)OCC(=O)Nc1ccccc1-c1ccccc1 |  | 3.67 | IC50 (HEPG2TOX_HILL_SLOPE 2.07, HEPG2TOX_R_SQUARED 0.949, PBLUC_HILL_SLOPE 25.6, PBLUC_R_SQUARED 0.535, read-out: LUCIFERASE INFECTION ASSAY - IC50): 3.37 µM
40 | COCCCNC1=NN=C(c2cc(C)n(-c3ccccc3F)c2C)CS1 |  | 9.7 | IC50 (HEPG2TOX_HILL_SLOPE 3.65, HEPG2TOX_R_SQUARED 0.669, PBLUC_HILL_SLOPE 1.05, PBLUC_R_SQUARED 0.653, read-out: LUCIFERASE INFECTION ASSAY - IC50): 1.2 µM
41 | COCCNc1ccc([N+](=O)[O-])cc1C(=O)Nc1nc2c(C)cccc2s1 |  | > 10 | IC50 (HEPG2TOX_HILL_SLOPE 9.09, HEPG2TOX_R_SQUARED 0.757, PBLUC_HILL_SLOPE 15.6, PBLUC_R_SQUARED 0.06, read-out: LUCIFERASE INFECTION ASSAY - IC50): 9.61 µM
